This is an account of results in ChEMBL document CHEMBL5728563, “Aminopyrazine derivatives as PI3K-γ inhibitors” (2021).

pIC50: −log10 of the molar value.

The pIC50 is the negative decadic logarithm of the IC50, by convention in mol/L.

In experiment [1] the target is Phosphatidylinositol 4,5-bisphosphate 3-kinase catalytic subunit gamma isoform (Homo sapiens, UniProt P48736). Description: (§1) PI3K-gamma Scintillation Proximity Assay: Materials: [γ-33P]ATP (10 mCi/mL) and Wheat Germ Agglutinin (WGA) YSi SPA Scintillation Beads was purchased from Perkin Elmer (Waltham, Mass.). Lipid kinase substrate, D-myo-Phosphatidylinositol 4,5-bisphosphate (PtdIns(4,5)P2)D (+)-sn-1,2-di-O-octanoylglyceryl, 3-O-phospho linked (PIP2), CAS 204858-53-7, was purchased from Echelon Biosciences (Salt Lake City, Utah). PI3Kγ (p110γ) Recombinant Human Protein was purchased from Life technology (Grand Island, N.Y.). ATP, MgCl2, DTT, EDTA, MOPS and CHAPS were purchased from Sigma Aldrich (St. Louis, Mo.).The kinase reaction was conducted in polystyrene 384-well Greiner Bio-one white plate from Thermo Fisher Scientific in a final volume of 25 μL. Inhibitors were first diluted serially in DMSO and added to the plate wells before the addition of other reaction components. The final concentration of DMSO in the assay was 2%. The PI3Kγ assay was carried out at room temperature in 20 mM MOPS, pH 6.7, 10 mM MgCl2, 5 mM DTT and CHAPS 0.03%. Reactions were initiated by the addition of ATP, the final reaction mixture consisted of 20 μM PIP2, 2 μM ATP, 0.5 μCi [γ-33P] ATP, 13 nM PI3Kγ. Reactions were incubated for 120 min and terminated by the addition of 40 μL SPA beads suspended in quench buffer: 163 mM potassium phosphate pH 7.8, 20% glycerol, 25 mM EDTA. The final concentration of SPA beads is 1.0 mg/mL. […]. For orientation: Scintillation proximity formats need no separation of bound from free tracer.
Sequence of Phosphatidylinositol 4,5-bisphosphate 3-kinase catalytic subunit gamma isoform (P48736 whole entry, canonical isoform): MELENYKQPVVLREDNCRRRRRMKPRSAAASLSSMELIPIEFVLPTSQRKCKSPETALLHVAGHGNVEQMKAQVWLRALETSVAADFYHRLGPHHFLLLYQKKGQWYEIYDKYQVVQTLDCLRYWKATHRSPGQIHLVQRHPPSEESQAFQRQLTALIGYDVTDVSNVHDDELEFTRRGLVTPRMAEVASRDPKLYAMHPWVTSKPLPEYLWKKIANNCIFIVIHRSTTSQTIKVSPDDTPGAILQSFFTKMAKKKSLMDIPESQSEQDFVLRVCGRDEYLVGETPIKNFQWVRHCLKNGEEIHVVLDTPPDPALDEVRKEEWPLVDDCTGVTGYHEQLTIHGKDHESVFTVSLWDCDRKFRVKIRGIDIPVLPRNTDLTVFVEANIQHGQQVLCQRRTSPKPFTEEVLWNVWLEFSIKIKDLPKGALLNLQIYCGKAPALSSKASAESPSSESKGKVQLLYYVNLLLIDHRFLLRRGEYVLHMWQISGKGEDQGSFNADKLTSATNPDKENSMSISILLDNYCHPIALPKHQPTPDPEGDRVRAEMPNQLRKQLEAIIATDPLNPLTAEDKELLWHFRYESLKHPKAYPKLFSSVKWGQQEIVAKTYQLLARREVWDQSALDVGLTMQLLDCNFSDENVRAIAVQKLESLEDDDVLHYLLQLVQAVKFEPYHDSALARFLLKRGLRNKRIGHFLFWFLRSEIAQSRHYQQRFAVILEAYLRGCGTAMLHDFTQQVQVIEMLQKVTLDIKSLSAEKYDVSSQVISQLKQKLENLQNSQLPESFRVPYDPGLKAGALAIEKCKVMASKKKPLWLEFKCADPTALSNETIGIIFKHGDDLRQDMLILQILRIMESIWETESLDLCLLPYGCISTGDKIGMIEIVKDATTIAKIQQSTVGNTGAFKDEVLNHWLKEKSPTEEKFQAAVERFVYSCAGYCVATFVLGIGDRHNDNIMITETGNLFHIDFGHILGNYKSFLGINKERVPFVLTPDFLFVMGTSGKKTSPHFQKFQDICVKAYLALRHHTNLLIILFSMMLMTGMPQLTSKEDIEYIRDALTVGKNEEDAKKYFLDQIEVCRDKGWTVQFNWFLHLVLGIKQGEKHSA

For experiment [2], the target named is T1, Phosphatidylinositol 4,5-bisphosphate 3-kinase catalytic subunit delta isoform (Homo sapiens, UniProt O00329).
T1 sequence (O00329 whole entry): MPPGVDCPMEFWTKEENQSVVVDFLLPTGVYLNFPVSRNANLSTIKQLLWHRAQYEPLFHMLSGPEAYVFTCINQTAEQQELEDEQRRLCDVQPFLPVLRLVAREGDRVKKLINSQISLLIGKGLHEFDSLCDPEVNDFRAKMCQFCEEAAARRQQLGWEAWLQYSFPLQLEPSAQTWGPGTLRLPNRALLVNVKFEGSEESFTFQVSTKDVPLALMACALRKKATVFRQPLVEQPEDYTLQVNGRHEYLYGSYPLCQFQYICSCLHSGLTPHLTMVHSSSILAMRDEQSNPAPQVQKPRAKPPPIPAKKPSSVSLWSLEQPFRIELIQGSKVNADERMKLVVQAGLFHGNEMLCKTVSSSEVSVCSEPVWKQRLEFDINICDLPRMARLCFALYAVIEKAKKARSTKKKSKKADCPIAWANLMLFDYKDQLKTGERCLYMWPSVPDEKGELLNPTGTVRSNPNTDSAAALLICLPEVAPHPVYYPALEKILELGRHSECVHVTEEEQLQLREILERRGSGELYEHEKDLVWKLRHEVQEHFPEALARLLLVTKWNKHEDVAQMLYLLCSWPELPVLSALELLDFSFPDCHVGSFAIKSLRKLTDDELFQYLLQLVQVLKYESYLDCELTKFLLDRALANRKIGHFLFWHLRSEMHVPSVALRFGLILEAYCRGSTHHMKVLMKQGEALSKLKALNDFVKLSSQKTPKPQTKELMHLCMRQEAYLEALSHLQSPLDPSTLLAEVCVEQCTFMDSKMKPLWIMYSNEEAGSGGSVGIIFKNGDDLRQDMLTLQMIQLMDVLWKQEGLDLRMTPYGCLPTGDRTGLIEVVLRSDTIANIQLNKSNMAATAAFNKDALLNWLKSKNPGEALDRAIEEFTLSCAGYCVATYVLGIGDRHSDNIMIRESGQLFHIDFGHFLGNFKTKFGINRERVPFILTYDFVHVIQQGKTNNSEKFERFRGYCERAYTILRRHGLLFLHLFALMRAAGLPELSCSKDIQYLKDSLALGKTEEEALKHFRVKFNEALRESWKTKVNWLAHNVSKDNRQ
Described as §1, with “PI3Kdelta” for “PI3K-gamma”, “PI3Kδ (p110δ/p85α)” for “PI3Kγ (p110γ)”, “Eurofins (St Charles, Mo.).” for “Life technology (Grand Island, N.Y.).”, “PI3Kδ” for “PI3Kγ”, “3.4” for “13”, “PI3Kδ.” for “PI3Kγ.”.

For `Cc1ncc(-c2nc(-c3cc(C(O)(C(N)=O)C(F)(F)F)ccc3C)cnc2N)s1` (configuration not stated), the pIC50 in experiment [1] and in experiment [2] was greater than 7.00 each time.
